Activity calls are given as the source filed them. No cut-off for these calls is given here.
Assays:
RAW264.7 = assay: Antiinflammatory activity in mouse RAW264.7 assessed as reduction in LPS-induced NO production; assay type: functional, cell-based
K562 = assay: Cytotoxicity against human K562 cells at 40 uM after 1 to 11 days by tetrazolium reagent based assay; assay type: functional, cell-based
HCT-116 = assay: Cytotoxicity against human HCT116 cells at 40 uM after 1 to 11 days by tetrazolium reagent based assay; assay type: functional, cell-based
MDA-MB-231 = assay: Cytotoxicity against human MDA-MB-231 cells at 40 uM after 1 to 11 days by tetrazolium reagent based assay; assay type: functional, cell-based
A549 = assay: Cytotoxicity against human A549 cells at 40 uM after 1 to 11 days by tetrazolium reagent based assay; assay type: functional, cell-based
HepG2 = assay: Cytotoxicity against human HepG2 cells at 40 uM after 1 to 11 days by tetrazolium reagent based assay; assay type: functional, cell-based
Acetylcholinesterase = Acetylcholinesterase (Homo sapiens, UniProt P22303); assay: Inhibition of human erythrocyte acetylcholinesterase using acetylthiocholine as substrate preincubated for 20 mins followed by substrate addition and measured after 30 mins by Ellman's method
Acetylcholinesterase, sequence (P22303 whole entry): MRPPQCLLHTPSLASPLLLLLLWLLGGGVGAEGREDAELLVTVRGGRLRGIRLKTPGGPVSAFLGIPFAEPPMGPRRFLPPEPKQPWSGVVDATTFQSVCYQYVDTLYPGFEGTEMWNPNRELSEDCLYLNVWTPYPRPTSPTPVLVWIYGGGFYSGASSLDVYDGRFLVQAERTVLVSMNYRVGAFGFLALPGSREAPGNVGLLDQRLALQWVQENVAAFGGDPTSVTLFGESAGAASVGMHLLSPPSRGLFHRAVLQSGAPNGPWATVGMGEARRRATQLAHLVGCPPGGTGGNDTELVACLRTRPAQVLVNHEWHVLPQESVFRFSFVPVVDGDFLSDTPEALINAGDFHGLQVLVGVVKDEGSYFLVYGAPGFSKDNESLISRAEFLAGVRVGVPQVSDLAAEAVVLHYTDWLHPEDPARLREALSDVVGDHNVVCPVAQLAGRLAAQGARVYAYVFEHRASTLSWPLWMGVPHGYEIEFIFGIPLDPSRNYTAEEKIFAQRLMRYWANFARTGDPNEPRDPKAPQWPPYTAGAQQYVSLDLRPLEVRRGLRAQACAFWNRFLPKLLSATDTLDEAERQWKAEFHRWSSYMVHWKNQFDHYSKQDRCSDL

SMILES | Activity (RAW264.7) | Activity (K562) | Activity (HCT-116) | Activity (MDA-MB-231) | Activity (A549) | Activity (HepG2) | IC50 (Acetylcholinesterase) [µM]
CCC(C)C(=O)[C@]12C(=O)[C@]3(CC=C(C)C)OC1(O)[C@](CC=C(C)C)(C[C@H](CC=C(C)C)C2(C)C)C3=O (stereo partly drawn) | inactive | inactive | inactive | inactive | inactive | inactive | 
CC(C)=CC[C@H]1C[C@]2(CC=C(C)C)C(=O)[C@]3(CC=C(C)C)O[C@@]1(C(=O)C(C)C)[C@@]2(O)C(C)(C)C3=O | inactive | inactive | inactive | inactive | inactive | inactive | 20.7

Reference: ChEMBL document CHEMBL4622879, “Structural Revision of Garcinielliptin Oxide and Garcinielliptone E” (J Nat Prod, 2020)
